According to article PMC5218480 (PLoS ONE, 2017):

System: MV-4-11 cells
Test: Gene expression microarray analysis (Affymetrix PrimeView) and GSEA
Type: cell-based, human
Conditions: MV-4-11, 48 hours, 1 μM each

With Nc1ccc(-c2cccs2)cc1NC(=O)c1ccc2c(c1)cc(C1CC1)n2CCN1CCOCC1 [ACY-1035] the “genes down-regulated greater than 2-fold relative to vehicle control” value was 72 genes.
